Type in all cases: cell-based
One test has as its target T1, hNav1.5 (Homo sapiens, UniProt Q14524).
T1 construct: host or cells: HEK293
Nature of the test: FLIPR membrane potential assay, hNav1.5. The settings on record: for Selectivity for Nav1.7, Nav subtype 1.5: membrane potential assay. How it is done: (§1) HEK293 cells stably expressing hNav1.1, hNav1.2, hNav1.3, hNav1.4, hNav1.5, hNav1.6, hNav1.7 and […] (SB Drug Discovery, Glasgow, UK) were cultured in minimum essential media (MEM) containing 10% v/v FBS supplemented with L-glutamine (2 mM) and selection antibiotics G-418 (0.5 mg/mL), blasticidin (2-4 μg/mL) and zeocin (0.5 mg/mL) as recommended by the manufacturer. CHO cells stably expressing hNav1.8 in a tetracycline-inducible system (Chantest, OH, USA) were cultured in Ham's F-12 containing 10% v/v FBS and selection antibiotics as recommended by the manufacturer. To induce hNav1.8 expression, cells were cultured in the presence of tetracycline (1 μg/mL) for 24 h at 27° C. Cells were grown in a humidified 5% CO2 incubator at 37° C., grown to 70-80% confluence, and passaged every 3-4 days using TrypLE Express (Invitrogen).
(§2) Cells were plated 48 h before the assay on 384-well black walled imaging plates at a density of 10,000 to 15,000 cells per well and were loaded with red membrane potential dye for 30 min at 37° C. (Molecular Devices, CA, USA). One vial of bulk red membrane potential dye was reconstituted to a 10× stock solution with PSS and stored at −20° C. and diluted to 1× solution with PSS on the day of the assay. […] Changes in membrane potential were assessed using the FLIPR^TETRA (excitation 515 to 545 nm, emission 565 to 625 nm) every second for 300 s after adding agonists.

The next test addresses T2, hNav1.1 (Homo sapiens, UniProt P35498).
T2 construct: host or cells: HEK293
Nature of the test: FLIPR membrane potential assay, hNav1.1. How it is done:
as §1, §2

Another test addresses T3, hNav1.8 (Homo sapiens, UniProt Q9Y5Y9).
T3 construct: host or cells: HEK293
The test can be described thus: FLIPR membrane potential assay, hNav1.8. The settings on record: for Selectivity for Nav1.7, Nav subtype 1.8: membrane potential assay. How it is done:
as §1, §2

The next test has as its target T4, hNav1.4 (Homo sapiens, UniProt P35499).
T4 construct: host or cells: HEK293
The test can be described thus: FLIPR membrane potential assay, hNav1.4. The settings on record: for Selectivity for Nav1.7, Nav subtype 1.4: membrane potential assay. How it is done: as §1, §2

For the next test, the target named is T5, hNav1.6 (Homo sapiens, UniProt Q9UQD0).
T5 construct: host or cells: HEK293
Nature of the test: FLIPR membrane potential assay, hNav1.6. The settings on record: for Selectivity for Nav1.7, Nav subtype 1.6: membrane potential assay. How it is done:
as §1, §2

The target in the next test is T6, hNav1.3 (Homo sapiens, UniProt Q9NY46).
T6 construct: host or cells: HEK293
The test can be described thus: FLIPR membrane potential assay, hNav1.3. The settings on record: for Selectivity for Nav1.7, Nav subtype 1.3: membrane potential assay. How it is done: as §1, §2

Another test concerns the target T7, hNav1.2 (Homo sapiens, UniProt Q99250).
T7 construct: host or cells: HEK293
Nature of the test: FLIPR membrane potential assay, hNav1.2. The settings on record: for Selectivity for Nav1.7, Nav subtype 1.2: membrane potential assay. How it is done: as §1, §2

In another test the target is T8, hNav1.7 (Homo sapiens, UniProt Q15858).
T8 construct: host or cells: HEK293
Nature of the test: FLIPR membrane potential assay, hNav1.7. The settings on record: for Selectivity for Nav1.7, Nav subtype 1.7: membrane potential assay, reference subtype. How it is done:
as §1, §2

Where a SMILES comes first, the peptide text is derived from it. Bridges are numbered along the chain shown (N, C = ends).

T3 sequence (Q9Y5Y9 whole entry): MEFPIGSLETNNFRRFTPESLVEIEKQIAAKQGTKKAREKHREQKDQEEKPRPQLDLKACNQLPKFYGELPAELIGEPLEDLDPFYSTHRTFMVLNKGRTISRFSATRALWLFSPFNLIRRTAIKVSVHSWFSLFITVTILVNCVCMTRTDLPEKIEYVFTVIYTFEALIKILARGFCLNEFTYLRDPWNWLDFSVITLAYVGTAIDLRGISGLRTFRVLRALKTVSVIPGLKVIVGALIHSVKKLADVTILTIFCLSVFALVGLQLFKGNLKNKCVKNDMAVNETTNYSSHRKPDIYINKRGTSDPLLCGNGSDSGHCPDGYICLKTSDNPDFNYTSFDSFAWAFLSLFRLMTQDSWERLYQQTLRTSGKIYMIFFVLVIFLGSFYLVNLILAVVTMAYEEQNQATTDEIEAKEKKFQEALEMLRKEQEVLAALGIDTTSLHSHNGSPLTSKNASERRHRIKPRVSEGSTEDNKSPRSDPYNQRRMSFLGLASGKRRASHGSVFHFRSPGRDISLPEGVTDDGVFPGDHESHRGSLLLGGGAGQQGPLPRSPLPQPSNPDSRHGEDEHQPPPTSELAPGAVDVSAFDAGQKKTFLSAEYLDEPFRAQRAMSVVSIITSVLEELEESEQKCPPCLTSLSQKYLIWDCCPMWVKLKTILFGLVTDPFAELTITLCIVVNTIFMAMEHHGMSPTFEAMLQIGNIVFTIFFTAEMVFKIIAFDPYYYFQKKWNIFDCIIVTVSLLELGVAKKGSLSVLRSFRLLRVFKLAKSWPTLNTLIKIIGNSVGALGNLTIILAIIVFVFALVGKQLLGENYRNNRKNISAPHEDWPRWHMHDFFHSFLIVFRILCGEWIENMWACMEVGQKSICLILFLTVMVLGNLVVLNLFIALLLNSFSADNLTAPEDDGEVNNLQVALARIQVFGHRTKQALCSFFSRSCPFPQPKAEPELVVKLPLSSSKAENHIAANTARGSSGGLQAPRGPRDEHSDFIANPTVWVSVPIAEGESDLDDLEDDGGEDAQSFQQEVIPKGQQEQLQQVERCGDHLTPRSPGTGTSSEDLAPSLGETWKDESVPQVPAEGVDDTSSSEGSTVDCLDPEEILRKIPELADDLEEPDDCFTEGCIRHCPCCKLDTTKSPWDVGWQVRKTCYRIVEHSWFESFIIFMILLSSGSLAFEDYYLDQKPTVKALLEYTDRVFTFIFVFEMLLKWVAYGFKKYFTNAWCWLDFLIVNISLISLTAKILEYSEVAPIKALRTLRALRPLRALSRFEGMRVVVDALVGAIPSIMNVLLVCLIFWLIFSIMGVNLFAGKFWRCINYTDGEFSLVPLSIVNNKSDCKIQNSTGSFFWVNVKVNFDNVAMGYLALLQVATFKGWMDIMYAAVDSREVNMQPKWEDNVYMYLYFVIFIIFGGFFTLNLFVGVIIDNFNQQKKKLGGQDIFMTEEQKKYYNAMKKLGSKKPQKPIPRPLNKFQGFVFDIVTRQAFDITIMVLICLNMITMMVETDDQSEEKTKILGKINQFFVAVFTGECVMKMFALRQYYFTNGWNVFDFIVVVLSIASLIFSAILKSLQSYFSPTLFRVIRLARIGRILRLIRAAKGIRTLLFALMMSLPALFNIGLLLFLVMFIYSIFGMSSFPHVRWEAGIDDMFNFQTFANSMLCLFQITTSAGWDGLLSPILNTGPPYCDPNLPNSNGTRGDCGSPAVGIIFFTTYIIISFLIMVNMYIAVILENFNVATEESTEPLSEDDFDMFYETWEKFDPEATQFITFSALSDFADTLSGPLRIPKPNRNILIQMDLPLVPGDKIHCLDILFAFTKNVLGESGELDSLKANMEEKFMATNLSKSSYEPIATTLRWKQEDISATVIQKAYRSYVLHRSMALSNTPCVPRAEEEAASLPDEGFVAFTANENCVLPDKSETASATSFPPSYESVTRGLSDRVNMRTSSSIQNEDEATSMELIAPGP
T8 sequence (Q15858 whole entry): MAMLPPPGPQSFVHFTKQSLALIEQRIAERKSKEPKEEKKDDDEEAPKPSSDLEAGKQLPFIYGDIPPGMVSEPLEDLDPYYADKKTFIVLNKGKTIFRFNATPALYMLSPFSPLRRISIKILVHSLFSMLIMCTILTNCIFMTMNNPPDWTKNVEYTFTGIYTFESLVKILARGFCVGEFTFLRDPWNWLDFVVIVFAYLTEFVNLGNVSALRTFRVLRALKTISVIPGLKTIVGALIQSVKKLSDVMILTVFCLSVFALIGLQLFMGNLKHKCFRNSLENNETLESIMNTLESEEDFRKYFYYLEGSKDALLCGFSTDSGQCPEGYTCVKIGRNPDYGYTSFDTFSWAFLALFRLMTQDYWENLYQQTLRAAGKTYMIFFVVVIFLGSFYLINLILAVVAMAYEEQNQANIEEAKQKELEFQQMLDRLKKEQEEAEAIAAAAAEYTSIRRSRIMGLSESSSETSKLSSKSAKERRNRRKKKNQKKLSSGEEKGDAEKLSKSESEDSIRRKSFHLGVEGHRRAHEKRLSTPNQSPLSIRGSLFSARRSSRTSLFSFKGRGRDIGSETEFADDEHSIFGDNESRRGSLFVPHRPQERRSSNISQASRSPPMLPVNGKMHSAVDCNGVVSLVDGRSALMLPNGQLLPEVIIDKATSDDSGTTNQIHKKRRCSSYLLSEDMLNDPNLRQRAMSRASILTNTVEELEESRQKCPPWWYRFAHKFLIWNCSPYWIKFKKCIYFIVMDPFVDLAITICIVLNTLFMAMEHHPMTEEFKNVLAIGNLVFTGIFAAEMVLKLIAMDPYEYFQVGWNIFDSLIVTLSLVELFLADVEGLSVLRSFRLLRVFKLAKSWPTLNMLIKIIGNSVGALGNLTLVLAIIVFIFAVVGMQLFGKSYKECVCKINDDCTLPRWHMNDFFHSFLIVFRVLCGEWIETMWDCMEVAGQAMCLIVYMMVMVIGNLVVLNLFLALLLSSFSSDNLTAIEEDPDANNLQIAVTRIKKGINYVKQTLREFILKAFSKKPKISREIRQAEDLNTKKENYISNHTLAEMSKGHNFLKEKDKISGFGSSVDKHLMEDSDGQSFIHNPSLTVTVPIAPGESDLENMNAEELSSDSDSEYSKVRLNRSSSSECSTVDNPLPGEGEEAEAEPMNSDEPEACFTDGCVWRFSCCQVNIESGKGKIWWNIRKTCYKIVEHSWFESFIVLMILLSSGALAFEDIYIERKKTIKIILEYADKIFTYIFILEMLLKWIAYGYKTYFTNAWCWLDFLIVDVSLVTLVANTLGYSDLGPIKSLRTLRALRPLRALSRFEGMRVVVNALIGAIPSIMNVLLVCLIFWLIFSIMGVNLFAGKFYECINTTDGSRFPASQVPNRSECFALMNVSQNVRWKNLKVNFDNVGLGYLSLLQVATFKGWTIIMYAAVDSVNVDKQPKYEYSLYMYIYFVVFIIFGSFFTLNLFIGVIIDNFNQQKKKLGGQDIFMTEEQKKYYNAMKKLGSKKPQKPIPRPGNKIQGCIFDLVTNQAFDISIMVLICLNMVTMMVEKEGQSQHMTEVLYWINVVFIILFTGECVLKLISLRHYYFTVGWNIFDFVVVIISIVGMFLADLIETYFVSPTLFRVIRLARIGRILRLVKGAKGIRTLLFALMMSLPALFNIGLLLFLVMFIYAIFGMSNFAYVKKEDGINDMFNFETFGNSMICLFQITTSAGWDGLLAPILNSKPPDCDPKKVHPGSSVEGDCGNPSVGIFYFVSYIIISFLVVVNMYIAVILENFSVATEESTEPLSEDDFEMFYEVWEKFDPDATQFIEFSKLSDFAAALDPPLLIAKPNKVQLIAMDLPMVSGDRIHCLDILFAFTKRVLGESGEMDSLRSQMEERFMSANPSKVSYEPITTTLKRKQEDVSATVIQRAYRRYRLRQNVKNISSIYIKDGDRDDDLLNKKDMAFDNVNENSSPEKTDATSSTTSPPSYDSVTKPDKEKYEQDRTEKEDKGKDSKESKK

As to `CSCC[C@@H]1NC(=O)[C@H](Cc2ccc(O)cc2)NC(=O)[C@H](CCCNC(=N)N)NC(=O)[C@@H](NC(=O)[C@H](CC(=O)O)NC(C)=O)CSSC[C@@H]2NC(=O)[C@@H]3CSSC[C@@H](C(=O)N[C@@H](C)C(=O)N[C@@H](Cc4c[nH]c5ccccc45)C(=O)N[C@@H](CC(=O)O)C(=O)N[C@@H](Cc4ccccc4)C(=O)N[C@H](C(=O)N[C@@H](Cc4ccccc4)C(=O)N[C@H](C(=O)O)[C@@H](C)O)[C@@H](C)O)NC(=O)[C@H](Cc4ccc(O)cc4)NC(=O)[C@H](CCCCN)NC(=O)[C@H](CCSC)NC(=O)[C@H](CCCCN)NC(=O)[C@H](CCCNC(=N)N)NC(=O)[C@H](CCCCN)NC(=O)[C@H](CSSC[C@H](NC(=O)[C@H](CC(=O)O)NC(=O)CNC(=O)[C@H](Cc4ccccc4)NC1=O)C(=O)N[C@@H](CCC(=O)O)C(=O)N[C@@H](CCCCN)C(=O)N[C@@H](CC(=O)O)C(=O)N[C@@H](CCC(=O)O)C(=O)N[C@@H](CC(=O)O)C(=O)N3)NC(=O)CNC(=O)[C@H](CC(C)C)NC(=O)[C@H](Cc1c[nH]cn1)NC(=O)[C@H](CCCCN)NC2=O` [Ac-Pnc1a], the half-inhibitory concentration (IC50) at hNav1.5 was above 30 µM; against hNav1.1, 23 µM; on hNav1.8 it was above 30 µM; against hNav1.4, 14 µM; at hNav1.6, 16 µM; at hNav1.3 it was 8 µM. Moreover, the IC50 at hNav1.2 turned out to be 5 µM.

`CSCC[C@@H]1NC(=O)[C@H](Cc2ccc(O)cc2)NC(=O)[C@H](CCCNC(=N)N)NC(=O)[C@@H](NC(=O)[C@@H](N)CC(=O)O)CSSC[C@@H]2NC(=O)[C@@H]3CSSC[C@@H](C(=O)N[C@@H](C)C(=O)N[C@@H](Cc4c[nH]c5ccccc45)C(=O)N[C@@H](CC(=O)O)C(=O)N[C@@H](Cc4ccccc4)C(=O)N[C@H](C(=O)N[C@@H](Cc4ccccc4)C(=O)N[C@H](C(N)=O)[C@@H](C)O)[C@@H](C)O)NC(=O)[C@H](Cc4ccc(O)cc4)NC(=O)[C@H](CCCCN)NC(=O)[C@H](CCSC)NC(=O)[C@H](CCCCN)NC(=O)[C@H](CCCNC(=N)N)NC(=O)[C@H](CCCCN)NC(=O)[C@H](CSSC[C@H](NC(=O)[C@H](CC(=O)O)NC(=O)CNC(=O)[C@H](Cc4ccccc4)NC1=O)C(=O)N[C@@H](CCC(=O)O)C(=O)N[C@@H](CCCCN)C(=O)N[C@@H](CC(=O)O)C(=O)N[C@@H](CCC(=O)O)C(=O)N[C@@H](CC(=O)O)C(=O)N3)NC(=O)CNC(=O)[C@H](CC(C)C)NC(=O)[C@H](Cc1c[nH]cn1)NC(=O)[C@H](CCCCN)NC2=O` [Pnc1a-CONH2]: the IC50 against hNav1.5 is above 30 µM; against hNav1.1, 8 µM; against hNav1.8 it was above 30 µM; against hNav1.4, 16 µM; at hNav1.6, 20 µM; at hNav1.3 it was 7 µM. At hNav1.2, this molecule showed an IC50 of 3 µM.

As for `CSCC[C@@H]1NC(=O)[C@H](Cc2ccc(O)cc2)NC(=O)[C@H](CCCNC(=N)N)NC(=O)[C@@H](NC(=O)[C@H](CC(=O)O)NC(=O)[C@@H](N)CO)CSSC[C@@H]2NC(=O)[C@@H]3CSSC[C@@H](C(=O)N[C@@H](C)C(=O)N[C@@H](Cc4c[nH]c5ccccc45)C(=O)N[C@@H](CC(=O)O)C(=O)N[C@@H](Cc4ccccc4)C(=O)N[C@H](C(=O)N[C@@H](Cc4ccccc4)C(=O)N[C@H](C(=O)O)[C@@H](C)O)[C@@H](C)O)NC(=O)[C@H](Cc4ccc(O)cc4)NC(=O)[C@H](CCCCN)NC(=O)[C@H](CCSC)NC(=O)[C@H](CCCCN)NC(=O)[C@H](CCCNC(=N)N)NC(=O)[C@H](CCCCN)NC(=O)[C@H](CSSC[C@H](NC(=O)[C@H](CC(=O)O)NC(=O)CNC(=O)[C@H](Cc4ccccc4)NC1=O)C(=O)N[C@@H](CCC(=O)O)C(=O)N[C@@H](CCCCN)C(=O)N[C@@H](CC(=O)O)C(=O)N[C@@H](CCC(=O)O)C(=O)N[C@@H](CC(=O)O)C(=O)N3)NC(=O)CNC(=O)[C@H](CC(C)C)NC(=O)[C@H](Cc1c[nH]cn1)NC(=O)[C@H](CCCCN)NC2=O` [S0-Pnc1a] (H-SDCRYMFGDCEKDEDCCKHLGCKRKMKYCAWDFTFT-OH; disulfide 3-17, 10-22, 16-29), the IC50 against hNav1.5 is above 30 µM; against hNav1.1 it was 9 µM; against hNav1.8, above 30 µM; against hNav1.4, 11 µM; against hNav1.6 it was 19 µM; against hNav1.7 it was 282 nM. Further, the IC50 at hNav1.3 is 6 µM; against hNav1.2, 3 µM. The “Selectivity for Nav1.7, Nav subtype 1.5” value at hNav1.5 was above 107. In addition, the “Selectivity for Nav1.7, Nav subtype 1.1” value at hNav1.1 (membrane potential assay) worked out at 32. Further, at hNav1.8, the “Selectivity for Nav1.7, Nav subtype 1.8” value was above 107. For the same molecule, on hNav1.4, the “Selectivity for Nav1.7, Nav subtype 1.4” value stood at 40. In addition, the “Selectivity for Nav1.7, Nav subtype 1.6” value at hNav1.6 is recorded as 68. Moreover, the “Selectivity for Nav1.7, Nav subtype 1.7” value on hNav1.7 is given as 1. At hNav1.3, the “Selectivity for Nav1.7, Nav subtype 1.3” value was found to be 22. On hNav1.2, the “Selectivity for Nav1.7, Nav subtype 1.2” value turned out to be 10.

Regarding `CSCC[C@@H]1NC(=O)[C@H](Cc2ccc(O)cc2)NC(=O)[C@H](CCCNC(=N)N)NC(=O)[C@@H](NC(=O)[C@@H](N)CC(=O)O)CSSC[C@@H]2NC(=O)[C@@H]3CSSC[C@@H](C(=O)N[C@@H](C)C(=O)N[C@@H](Cc4c[nH]c5ccccc45)C(=O)N[C@@H](CC(=O)O)C(=O)N[C@@H](Cc4ccccc4)C(=O)N[C@H](C(=O)N[C@@H](Cc4ccccc4)C(=O)N[C@H](C(=O)O)[C@@H](C)O)[C@@H](C)O)NC(=O)[C@H](Cc4ccc(O)cc4)NC(=O)[C@H](CCCCN)NC(=O)[C@H](CCSC)NC(=O)[C@H](CCCCN)NC(=O)[C@H](CCCNC(=N)N)NC(=O)[C@H](CCCCN)NC(=O)[C@H](CSSC[C@H](NC(=O)[C@H](CC(=O)O)NC(=O)CNC(=O)[C@H](Cc4ccccc4)NC1=O)C(=O)N[C@@H](CCC(=O)O)C(=O)N[C@@H](CCCCN)C(=O)N[C@@H](CC(=O)O)C(=O)N[C@@H](CCCCN)C(=O)N[C@@H](CC(=O)O)C(=O)N3)NC(=O)CNC(=O)[C@H](CC(C)C)NC(=O)[C@H](Cc1c[nH]cn1)NC(=O)[C@H](CCCCN)NC2=O` [[E13K]Pnc1a] (H-DCRYMFGDCEKDKDCCKHLGCKRKMKYCAWDFTFT-OH; disulfide 2-16, 9-21, 15-28), on hNav1.5, the concentration for half-maximal inhibition (IC50) was above 30 µM and the “Selectivity for Nav1.7, Nav subtype 1.5” value was above 300. Further, on hNav1.8, the IC50 is above 30 µM and the “Selectivity for Nav1.7, Nav subtype 1.8” value is above 300. Moreover, at hNav1.4, the midpoint of inhibition, the IC50, lay at 2 µM and the “Selectivity for Nav1.7, Nav subtype 1.4” value stood at 27. Also, on hNav1.6, the IC50 came out at 1 µM and the “Selectivity for Nav1.7, Nav subtype 1.6” value was 14. Besides, on hNav1.7, the “Selectivity for Nav1.7, Nav subtype 1.7” value was found to be 1. For the same molecule, at hNav1.3, the IC50 stood at 6 µM and the “Selectivity for Nav1.7, Nav subtype 1.3” value came to 66. Also, at hNav1.2, the IC50 turned out to be 0.378 µM and the “Selectivity for Nav1.7, Nav subtype 1.2” value worked out at 4.

What is called IC50 is the concentration needed to halve the response being measured.

The values above are taken from US10662229B2, “Spider venom peptides and methods of use for modulating sodium channels” (priority 2016, dated 2020).
